Measurements: publication PMC8584173, “The Cytotoxic Effect of Copper (II) Complexes with Halogenated 1,3-Disubstituted Arylthioureas on Cancer and Bacterial Cells” (International Journal of Molecular Sciences, 2021)

Legend:
S. aureus 481 = experiment: MIC, hospital MRSA strain; assay type: cell-based, Staphylococcus aureus; details: for MIC: hospital MRSA S. aureus 481
Method: (§1) The antimicrobial activity of the compounds was tested on Gram-positive bacteria (Staphylococcus aureus NCTC 4163, Staphylococcus aureus ATCC 25923, Staphylococcus aureus ATCC 6538, Staphylococcus aureus ATCC 29213, Staphylococcus epidermidis ATCC 12228, Staphylococcus epidermidis ATCC 35984), Gram-negative rods (Escherichia coli ATCC 10538, Escherichia coli ATCC 25922, Pseudomonas aeruginosa ATCC 15442, Pseudomonas aeruginosa ATCC 27863) and yeasts (Candida albicans ATCC 10231, Candida albicans ATCC 90028, Candida parapsilosis ATCC 22019). Hospital methicillin-resistant strains of Staphylococcus aureus and Staphylococcus epidermidis were obtained from the collection of the Department of Pharmaceutical Microbiology, Medical University of Warsaw, Poland.
(§2) Antifungal activities were assessed using Mueller–Hinton agar + 2% glucose and 0.5 µg/mL methylene blue dye medium. Sterile filter paper discs (9 mm diameter, Whatman Number 3 chromatography paper) were dripped with tested compound solutions (in dimethylsulfoxide, DMSO) to load 400 μg of a given compound per disc. Dry discs were placed on the surface of appropriate agar medium. The results (diameter of the growth inhibition zone) were read after 18 h of incubation at 35 °C. Minimal inhibitory concentration (MIC) was tested by the twofold serial microdilution method (in 96-well microtiter plates) using Mueller–Hinton broth medium (Beckton Dickinson) for bacteria or RPMI-1640 medium for Candida species, according to CLSI guidelines. The stock solution of tested agent was prepared in DMSO and diluted in sterile water. […] The final inoculum of all studied microorganisms was 10^5 CFU/ mL^−1 (colony forming units per ml). Minimal inhibitory concentrations (the lowest concentration of a tested agent that prevents visible growth of a microorganism) were read after 18 h (bacteria) or 24 h (yeasts) of incubation at 35 °C.

S. aureus ATCC 25923 = experiment: MIC, twofold serial microdilution; assay type: cell-based, Staphylococcus aureus; details: S. aureus ATCC 25923, 18 h, 35 °C
Method: as §1, §2

S. aureus ATCC 6538 = experiment: MIC, twofold serial microdilution; assay type: cell-based, Staphylococcus aureus; details: S. aureus ATCC 6538, 18 h, 35 °C
Method: as §1, §2

S. aureus NCTC 4163 = experiment: MIC, twofold serial microdilution; assay type: cell-based, Staphylococcus aureus; details: S. aureus NCTC 4163, 18 h, 35 °C
Method: as §1, §2

S. aureus ATCC 29213 = experiment: MIC, twofold serial microdilution; assay type: cell-based, Staphylococcus aureus; details: S. aureus ATCC 29213, 18 h, 35 °C
Method: as §1, §2

S. epidermidis 420 = experiment: MIC, hospital MRSE strain; assay type: cell-based, Staphylococcus epidermidis; details: hospital MRSE S. epidermidis 420
Method: as §1, §2

S. epidermidis 515 = experiment: MIC, hospital MRSE strain; assay type: cell-based, Staphylococcus epidermidis; details: hospital MRSE S. epidermidis 515
Method: as §1, §2

S. epidermidis 424 = experiment: MIC, hospital MRSE strain; assay type: cell-based, Staphylococcus epidermidis; details: hospital MRSE S. epidermidis 424
Method: as §1, §2

S. epidermidis 510 = experiment: MIC, hospital MRSE strain; assay type: cell-based, Staphylococcus epidermidis; details: hospital MRSE S. epidermidis 510
Method: as §1, §2

S. epidermidis 433 = experiment: MIC, hospital MRSE strain; assay type: cell-based, Staphylococcus epidermidis; details: hospital MRSE S. epidermidis 433
Method: as §1, §2

S. epidermidis 471 = experiment: MIC, hospital MRSE strain; assay type: cell-based, Staphylococcus epidermidis; details: hospital MRSE S. epidermidis 471
Method: as §1, §2

S. epidermidis 437 = experiment: MIC, hospital MRSE strain; assay type: cell-based, Staphylococcus epidermidis; details: hospital MRSE S. epidermidis 437
Method: as §1, §2

S. epidermidis 423 = experiment: MIC, hospital MRSE strain; assay type: cell-based, Staphylococcus epidermidis; details: hospital MRSE S. epidermidis 423
Method: as §1, §2

S. epidermidis 511 = experiment: MIC, hospital MRSE strain; assay type: cell-based, Staphylococcus epidermidis; details: hospital MRSE S. epidermidis 511
Method: as §1, §2

S. epidermidis 431 = experiment: MIC, hospital MRSE strain; assay type: cell-based, Staphylococcus epidermidis; details: hospital MRSE S. epidermidis 431
Method: as §1, §2

S. epidermidis 513 = experiment: MIC, hospital MRSE strain; assay type: cell-based, Staphylococcus epidermidis; details: hospital MRSE S. epidermidis 513
Method: as §1, §2

S. epidermidis 438 = experiment: MIC, hospital MRSE strain; assay type: cell-based, Staphylococcus epidermidis; details: hospital MRSE S. epidermidis 438
Method: as §1, §2

S. epidermidis 469 = experiment: MIC, hospital MRSE strain; assay type: cell-based, Staphylococcus epidermidis; details: hospital MRSE S. epidermidis 469
Method: as §1, §2

S. epidermidis 432 = experiment: MIC, hospital MRSE strain; assay type: cell-based, Staphylococcus epidermidis; details: hospital MRSE S. epidermidis 432
Method: as §1, §2

S. epidermidis 436 = experiment: MIC, hospital MRSE strain; assay type: cell-based, Staphylococcus epidermidis; details: hospital MRSE S. epidermidis 436
Method: as §1, §2

S. epidermidis 435 = experiment: MIC, hospital MRSE strain; assay type: cell-based, Staphylococcus epidermidis; details: hospital MRSE S. epidermidis 435
Method: as §1, §2

[1] = system: Bacillus subtilis M45 (rec−); experiment: Bacillus subtilis rec-assay, M45; assay type: cell-based; details: B. subtilis M45; 256 µg per disc (NOQ 2 µg per disc)
Method: DNA-damaging activity of compounds was tested by rec-assay using two genetically modified Bacillus subtilis strains: M45 (rec^−) and H17 (rec^+). Tested compounds were dissolved in DMSO, and 10 µL of each solution was dripped onto sterile cotton discs (Rotilabo) to load 256 µg of a given compound per 9 mm disc. Discs were placed on the surface nutrient agar plates (Difco), inoculated with 100 µL of bacterial overnight culture and incubated […] at 35 °C. After incubation, the growth inhibition zones were measured. […] Results of the genotoxicity test were estimated after 18 h of incubation at 35 °C by comparing the diameter of the inhibition zone on the B. subtilis M45 (rec^−) strain with that on the B. subtilis H17 (rec^+) strain.

E. coli NCTC 10538 = experiment: MIC, twofold serial microdilution; assay type: cell-based, Escherichia coli; details: E. coli NCTC 10538, 18 h, 35 °C
Method: as §1, §2

E. coli ATCC 25922 = experiment: MIC, twofold serial microdilution; assay type: cell-based, Escherichia coli; details: E. coli ATCC 25922, 18 h, 35 °C
Method: as §1, §2

[2] = system: hospital S. epidermidis (MRSE); experiment: MIC, hospital S. epidermidis; assay type: cell-based, Staphylococcus epidermidis; details: S. epidermidis 424, 471, 511, 515 and 431–433 isolates
Method: as §1, §2

Structure (SMILES): O=[N+]([O-])c1cc([N+]2=C(Nc3ccc(Cl)c(Cl)c3)[S][Cu-2]23[S]C(Nc2ccc(Cl)c(Cl)c2)=[N+]3c2ccc(Cl)c([N+](=O)[O-])c2)ccc1Cl [Compound 5, Copper (II) complex with 1-(4-chloro-3-nitrophenyl)-3-(3,4-dichlorophenyl)thiourea]
- MIC (S. aureus 481): 16 mg/L
- MIC (S. aureus ATCC 25923): 32 mg/L
- MIC (S. aureus ATCC 6538): 32 mg/L
- MIC (S. aureus NCTC 4163): 32 mg/L
- MIC (S. aureus ATCC 29213): 32 mg/L
- MIC (S. epidermidis 420): 32 mg/L
- MIC (S. epidermidis 515): 32 mg/L
- MIC (S. epidermidis 424): 32 mg/L
- MIC (S. epidermidis 510): 16 mg/L
- MIC (S. epidermidis 433): 32 mg/L
- MIC (S. epidermidis 471): 32 mg/L
- MIC (S. epidermidis 437): 32 mg/L
- MIC (S. epidermidis 423): 32 mg/L
- MIC (S. epidermidis 511): 32 mg/L
- MIC (S. epidermidis 431): 16 mg/L
- MIC (S. epidermidis 513): 16 mg/L
- MIC (S. epidermidis 438): 32 mg/L
- MIC (S. epidermidis 469): 32 mg/L
- MIC (S. epidermidis 432): 32 mg/L
- MIC (S. epidermidis 436): 32 mg/L
- MIC (S. epidermidis 435): 32 mg/L
- inhibition zone diameter [1]: 18 mm
- MIC (E. coli NCTC 10538): 128 mg/L
- MIC (E. coli ATCC 25922): 128 mg/L

Structure (SMILES): O=[N+]([O-])c1cc(NC2=[N+](c3ccc(Cl)c([N+](=O)[O-])c3)[Cu-2]3([S]2)[S]C(Nc2ccc(Cl)c([N+](=O)[O-])c2)=[N+]3c2ccc(Cl)c([N+](=O)[O-])c2)ccc1Cl [Compound 6, Copper (II) complex with 1,3-bis(4-chloro-3-nitrophenyl)thiourea]
- MIC (S. aureus 481): 32 mg/L
- MIC (S. aureus ATCC 25923): 8 mg/L
- MIC (S. aureus ATCC 6538): 8 mg/L
- MIC (S. aureus NCTC 4163): 8 mg/L
- MIC (S. aureus ATCC 29213): 8 mg/L
- MIC (S. epidermidis 420): 64 mg/L
- MIC (S. epidermidis 515): 64 mg/L
- MIC (S. epidermidis 424): 64 mg/L
- MIC (S. epidermidis 510): 64 mg/L
- MIC (S. epidermidis 433): 64 mg/L
- MIC (S. epidermidis 471): 64 mg/L
- MIC (S. epidermidis 437): 128 mg/L
- MIC (S. epidermidis 423): 64 mg/L
- MIC (S. epidermidis 511): 64 mg/L
- MIC (S. epidermidis 431): 64 mg/L
- MIC (S. epidermidis 513): 64 mg/L
- MIC (S. epidermidis 438): 128 mg/L
- MIC (S. epidermidis 469): 64 mg/L
- MIC (S. epidermidis 432): 64 mg/L
- MIC (S. epidermidis 436): 128 mg/L
- MIC (S. epidermidis 435): 128 mg/L
- inhibition zone diameter [1]: 15 mm
- MIC (E. coli NCTC 10538): 128 mg/L
- MIC (E. coli ATCC 25922): 128 mg/L

Structure (SMILES): O=[N+]([O-])c1cc([N+]2=C(Nc3ccccc3F)[S][Cu-2]23[S]C(Nc2ccccc2F)=[N+]3c2ccc(Cl)c([N+](=O)[O-])c2)ccc1Cl [Compound 7, Copper (II) complex with 1-(2-fluorophenyl)-3-(4-chloro-3-nitrophenyl)thiourea]
- times more active than ciprofloxacin (S. aureus 481; S. aureus 481): 64 times
- MIC (S. aureus 481): 4 mg/L
- MIC (S. aureus ATCC 25923): 32 mg/L
- MIC (S. aureus ATCC 6538): 32 mg/L
- MIC (S. aureus NCTC 4163): 32 mg/L
- MIC (S. aureus ATCC 29213): 32 mg/L
- times more effective than the reference chemotherapeutic (ciprofloxacin) [2]: 2–16 times
- MIC (S. epidermidis 420): 8 mg/L
- MIC (S. epidermidis 515): 8 mg/L
- MIC (S. epidermidis 424): 8 mg/L
- MIC (S. epidermidis 510): 8 mg/L
- MIC (S. epidermidis 433): 8 mg/L
- MIC (S. epidermidis 471): 8 mg/L
- MIC (S. epidermidis 437): 8 mg/L
- MIC (S. epidermidis 423): 8 mg/L
- MIC (S. epidermidis 511): 8 mg/L
- MIC (S. epidermidis 431): 8 mg/L
- MIC (S. epidermidis 513): 8 mg/L
- MIC (S. epidermidis 438): 8 mg/L
- MIC (S. epidermidis 469): 8 mg/L
- MIC (S. epidermidis 432): 8 mg/L
- MIC (S. epidermidis 436): 8 mg/L
- MIC (S. epidermidis 435): 8 mg/L
- inhibition zone diameter [1]: 18 mm
- MIC (E. coli NCTC 10538): 128 mg/L
- MIC (E. coli ATCC 25922): 256 mg/L

Structure (SMILES): O=[N+]([O-])c1cc([N+]2=C(Nc3cccc(Br)c3)[S][Cu-2]23[S]C(Nc2cccc(Br)c2)=[N+]3c2ccc(Cl)c([N+](=O)[O-])c2)ccc1Cl [Compound 2, Copper (II) complex with 1-(3-bromophenyl)-3-(4-chloro-3-nitrophenyl)thiourea]
- MIC (S. aureus 481): 8 mg/L
- MIC (S. aureus ATCC 25923): 16 mg/L
- MIC (S. aureus ATCC 6538): 16 mg/L
- MIC (S. aureus NCTC 4163): 16 mg/L
- MIC (S. aureus ATCC 29213): 16 mg/L
- times more effective than the reference chemotherapeutic (ciprofloxacin) [2]: 2–16 times
- MIC (S. epidermidis 420): 8 mg/L
- MIC (S. epidermidis 515): 8 mg/L
- MIC (S. epidermidis 424): 8 mg/L
- MIC (S. epidermidis 510): 8 mg/L
- MIC (S. epidermidis 433): 8 mg/L
- MIC (S. epidermidis 471): 8 mg/L
- MIC (S. epidermidis 437): 8 mg/L
- MIC (S. epidermidis 423): 8 mg/L
- MIC (S. epidermidis 511): 8 mg/L
- MIC (S. epidermidis 431): 8 mg/L
- MIC (S. epidermidis 513): 8 mg/L
- MIC (S. epidermidis 438): 8 mg/L
- MIC (S. epidermidis 469): 8 mg/L
- MIC (S. epidermidis 432): 8 mg/L
- MIC (S. epidermidis 436): 8 mg/L
- MIC (S. epidermidis 435): 8 mg/L
- inhibition zone diameter [1]: 19 mm
- MIC (E. coli NCTC 10538): 128 mg/L
- MIC (E. coli ATCC 25922): 128 mg/L
